From PubChem BioAssay (NCI)
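Method: 48-hour compound exposure of cells in 96-well plates, five concentrations, linear interpolation of endpoints. The concentration for 50% growth inhibition is given as GI50. TGI denotes the concentration required for complete inhibition of growth.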

Key:
Test in all cases: NCI tumour cell line growth inhibition, 48 h
HCT-116 colon = tested on: HCT-116 colon
SF-539 CNS = tested on: SF-539 CNS
UACC-62 melanoma = tested on: UACC-62 melanoma
BT-549 breast = tested on: BT-549 breast
OVCAR-5 ovarian = tested on: OVCAR-5 ovarian
ACHN renal = tested on: ACHN renal
CAKI-1 renal = tested on: CAKI-1 renal
SF-295 CNS = tested on: SF-295 CNS
NCI/ADR-RES ovarian = tested on: NCI/ADR-RES ovarian
MCF7 breast = tested on: MCF7 breast

Row | Structure (SMILES) | GI50 (HCT-116 colon) [µM] | TGI (HCT-116 colon) [µM] | GI50 (SF-539 CNS) [µM] | TGI (SF-539 CNS) [µM] | GI50 (UACC-62 melanoma) [µM] | TGI (UACC-62 melanoma) [µM] | GI50 (BT-549 breast) [µM] | TGI (BT-549 breast) [µM] | GI50 (OVCAR-5 ovarian) [µM] | TGI (OVCAR-5 ovarian) [µM] | GI50 (ACHN renal) [µM] | TGI (ACHN renal) [µM] | GI50 (CAKI-1 renal) [µM] | TGI (CAKI-1 renal) [µM] | GI50 (SF-295 CNS) [µM] | TGI (SF-295 CNS) [µM] | GI50 (NCI/ADR-RES ovarian) [µM] | TGI (NCI/ADR-RES ovarian) [µM] | GI50 (MCF7 breast) [µM] | TGI (MCF7 breast) [µM]
1 | CNC(=O)c1cncc(/C=C/c2c(C)cccc2C)c1 | > 25 | > 25 | 14.5 | > 25 | > 22.5 | > 25 | > 25 | > 25 | > 25 | > 25 | 16.3 | > 25 | 10.2 | > 25 | > 25 | > 25 | > 25 | > 25 | > 25 | > 25
2 | COc1ccc(-c2nc(N)c3ncn(C4OC(CO)C(O)C4O)c3n2)cc1 (stereo not given) |  | > 100 |  | > 100 |  | > 100 |  | > 100 |  | > 100 |  | > 100 |  | > 100 |  | > 100 |  | > 100 |  | > 100
3 | O=C1CC2C(=O)C1C(C(=O)O)C2C(=O)O (stereo not given) |  | > 100 |  | > 100 |  | > 100 |  | > 100 |  | > 100 |  | > 100 |  | > 100 |  | > 100 |  | > 100 |  | > 100
4 | N/C(=N\c1nc2ccccc2s1)NC(=O)Nc1ccccc1Cl | 0.0852 | 3.5 | 0.0853 | 0.834 | 0.125 | > 78.9 | 0.421 | 4.86 | 0.379 | 26.8 | 0.227 | 7.17 | 0.0624 | 15.5 | 0.106 | 1.74 | 0.0643 | 8.83 | 0.112 | > 100
5 | CC(=O)Nc1ccc2oc(=O)c3ccccc3c2c1 |  | > 100 |  | > 100 |  | > 100 |  | > 100 |  | > 100 |  | > 100 |  | > 100 |  | > 100 |  | > 100 |  | > 100
6 | O=C1/C(=C/c2ccccc2)CN(CCC(=O)N2C/C(=C\c3ccccc3)C(=O)/C(=C/c3ccccc3)C2)C/C1=C\c1ccccc1 | 0.346 | 4.17 | 13.9 | 50.6 | 7.19 | 33.9 | 9.91 | 36.4 | 33.1 | > 91.3 | 8.92 | 30.3 | 8.5 | 41.1 | 14.2 | 30 | 12.1 | > 76 | 0.182 | 26.3
7 | NCC1OC(n2cnc3c(=O)[nH]c(N)nc32)C(O)C1O (stereo not given) |  | > 100 |  | > 100 |  | > 100 |  | > 100 |  | > 100 |  | > 100 |  | > 100 |  | > 100 |  | > 100 |  | > 100
8 | NC(=O)c1cc(Cl)ccc1NC(=O)c1ccccc1-c1ccccc1 | 0.43 | 65.1 | 0.319 | 1.89 | 0.836 | 25.3 | 0.572 | 52.7 | 4.12 | 79.1 | 0.799 | 87.6 | 0.735 | 64.3 | 0.347 | 15.9 | 0.459 | 26.4 | 0.457 | > 100
9 | CN(C)CCCN=c1cc2c(=O)n(CCCN(C)C)c(=O)c3c(NCCCN(C)C)cc4c(O)n(CCCN(C)C)c(=O)c1c4c3-2 | 0.582 | 5.52 | 2.33 | 11 | 1.75 | 4.86 | 11.2 | 31.4 | 1.12 | 4.09 | 0.736 | 12.4 | 6.21 | 29.4 | 1.1 | 9 | 12.3 | > 100 | 0.409 | 9.4
10 | CCC(c1ccc(OC)cc1)C(CC)c1ccc(O)c(CN2CCCC2)c1 (stereo not given) | 3.44 | 12.5 | 4.16 | 15.6 | 2.07 | 4.97 | 3.27 | 11.5 | 12.3 | 27.8 | 4.57 | 18.5 | 6.1 | 20 | 2.12 | 4.85 | 5.92 | 22.3 | 2.74 | 6.47
11 | CN(C1=NS(=O)(=O)N=C(N(C)c2ccccc2)O1)c1ccccc1 |  | 27.6 |  | 39.3 |  | 28 |  | 39 |  | 47 |  | 31.7 |  | 45.4 |  | 57.7 |  | 70.8 |  | 38.9
12 | CC(C)(C)N1CC(OC(N)=O)C1 | > 100 | > 100 | > 100 | > 100 | > 100 | > 100 | > 100 | > 100 | > 100 | > 100 | > 100 | > 100 | > 100 | > 100 | > 100 | > 100 | > 100 | > 100 | > 100 | > 100
